Key:
Format in all cases: cell-based
Coliforma strain 14 = assay: MIC, serial dilution test (Example 8); details: VI + VII equal parts
Description: (§1) The in vitro activity of 6-(D-α-aminophenylacetamido) penicillanic acid (I), 6-[(hexahydro-1H-azepin-1-yl)methyleneamino]penicillanic acid (II) and of a combination (III) of equal parts of the two compounds against clinically isolated enterobacteria was determined in a serial dilution test. Tryptose phosphate broth, containing the appropriate concentrations of the compounds or of the combination of them, was inoculated with 0.5×10^4 -5×10^4 organisms of the various micro-organisms tested and incubated overnight at 37° C. Minimum inhibitory concentrations (M.I.C.) were taken as the concentrations of the compounds or of the combination at which no visible growth occurred.
(§2) Using the technique described in Example 1 the in vitro activity of cephalotin (VI) and 6-[(N,N-diethylformamidino)-N'-amino]penicillanic acid (VII) and of a combination of equal parts of the compounds against clinically isolated strains of Coliforma and Klebsiella-Enterobacter was determined in serial dilution tests.

Coliforma strain 3 = assay: MIC, serial dilution test (Example 8); details: VI + VII equal parts
Description: as §1, §2

Coliforma strain 7 = assay: MIC, serial dilution test (Example 8); details: VI + VII equal parts
Description: as §1, §2

[1] = system: Klebsiella-Enterobacter strain 5; assay: MIC, serial dilution test (Example 8); details: VI + VII equal parts
Description: (§3) Tryptose phosphate broth, containing the appropriate concentrations of the compounds or of the combination of them, was inoculated with 0.5×10^4 -5×10^4 organisms of the various micro-organisms tested and incubated overnight at 37° C. Minimum inhibitory concentrations (M.I.C.) were taken as the concentrations of the compounds or of the combination at which no visible growth occurred.

[2] = system: clinically isolated strain of Klebsiella-Enterobacter (strain 4/71); assay: M.I.C., serial dilution test (Example 10); details: cephalosporin alone, II alone, 1:1 combination
Description: as §1
(§4) Using the same technique as described in Example 1 the in vitro activity of 6-[(hexahydro-1H-azepin-1-yl)methyleneamino]penicillanic acid (II), of various cephalosporins previously mentioned in this specification, and of 1:1 combinations of II with these cephalosporins was determined against a clinically isolated strain of Klebsiella-Enterobacter (strain 4/71)

[3] = system: clinically isolated strain of Proteus (Proteus Mirabilis I 190); assay: M.I.C., serial dilution test (Example 11); details: cephalosporin alone, II alone, 1:1 combination
Description: as §1
as §4, with “cephalosporins” for “cephalosporins previously mentioned in this specification,”, “Proteus (Proteus Mirabilis I 190).” for “Klebsiella-Enterobacter (strain 4/71)”

[4] = system: clinically isolated coliform bacterium (No. 9/70); assay: M.I.C., serial dilution test (Example 2); details: coliform No. 9/70; penicillin alone, II alone, 1:1 combination
Description: as §1
Using the same technique as described in Example 1 the in vitro-activity of 6-[(hexahydro-1H-azepin-1-yl)methyleneamino]penicillanic acid (II), of various penicillins and of 1:1-combinations of II with the respective penicillin was determined against a clinically isolated coliform bacterium (No. 9/70).

Coliforma strain 4 = assay: MIC, serial dilution test (Example 9); details: 1:2 and 2:1 given as I + VII concentrations
Description: as §1
(§5) Using the technique described in Example 1 the in vitro effect of combinations of 6-(D-α-aminophenylacetamido)-penicillanic acid (I) and 6-[(N,N-diethylformamidino)-N'-amino]penicillanic acid (VII) in the ratios 1:1, 1:2 and 2:1 against clinically isolated strains of Coliforma, Klebsiella-Enterobacter and Proteus was determined in serial dilution tests.

[5] = system: Klebsiella-Enterobacter strain 7; assay: MIC, serial dilution test (Example 9); details: 1:2 and 2:1 given as I + VII concentrations
Description: as §1, §5

Proteus strain 9 = assay: MIC, serial dilution test (Example 9); details: 1:2 and 2:1 given as I + VII concentrations
Description: as §1, §5

[6] = system: Klebsiella-Enterobacter strain 1; assay: MIC, serial dilution test (Example 9); details: 1:2 and 2:1 given as I + VII concentrations
Description: as §3

[7] = system: Klebsiella-Enterobacter strain 5; assay: MIC, serial dilution test (Example 9); details: 1:2 and 2:1 given as I + VII concentrations
Description: as §3

Coliform 10/70 = assay: M.I.C., serial dilution test in tryptose phosphate broth (Example 1); details: Coliform strain 10/70; overnight at 37° C; III = equal parts I and II
Description: as §1

Coliform 3/70 = assay: as above; details: Coliform strain 3/70; overnight at 37° C; III = equal parts I and II
Description: as §1

Proteus 12/70 = assay: as above; details: Proteus strain 12/70; overnight at 37° C; III = equal parts I and II
Description: as §1

Proteus 13/70 = assay: as above; details: Proteus strain 13/70; overnight at 37° C; III = equal parts I and II
Description: as §1

Proteus 20/70 = assay: as above; details: Proteus strain 20/70; overnight at 37° C; III = equal parts I and II
Description: as §1

Proteus vulgaris B = assay: as above; details: overnight at 37° C, III = equal parts I and II
Description: as §1

Coliform 14/70 = assay: M.I.C., serial dilution test (Example 4); details: Coliform strain 14/70; V = equal parts I and IV
Description: as §1

Coliform 16/70 = assay: M.I.C., serial dilution test (Example 4); details: Coliform strain 16/70; V = equal parts I and IV
Description: as §1

Coliform 7/70 = assay: M.I.C., serial dilution test (Example 4); details: Coliform strain 7/70; V = equal parts I and IV
Description: as §1

[8] = system: Klebsiella-Enterobacter. 1/70; assay: M.I.C., serial dilution test (Example 4); details: Klebsiella-Enterobacter. strain 1/70; V = equal parts I and IV
Description: as §1

[9] = system: Klebsiella-Enterobacter. 10/70; assay: M.I.C., serial dilution test (Example 4); details: Klebsiella-Enterobacter. strain 10/70; V = equal parts I and IV
Description: as §1

[10] = system: Klebsiella-Enterobacter. 431; assay: M.I.C., serial dilution test (Example 4); details: Klebsiella-Enterobacter. strain 431; V = equal parts I and IV
Description: as §1

[11] = system: Klebsiella-Enterobacter. 5/70; assay: M.I.C., serial dilution test (Example 4); details: Klebsiella-Enterobacter. strain 5/70; V = equal parts I and IV
Description: as §1

[12] = system: Klebsiella-Enterobacter. 7/70; assay: M.I.C., serial dilution test (Example 4); details: Klebsiella-Enterobacter. strain 7/70; V = equal parts I and IV
Description: as §1

[13] = system: Klebsiella-Enterobacter. 9/70; assay: M.I.C., serial dilution test (Example 4); details: Klebsiella-Enterobacter. strain 9/70; V = equal parts I and IV
Description: as §1

Proteus 10/70 = assay: M.I.C., serial dilution test (Example 4); details: Proteus strain 10/70; V = equal parts I and IV
Description: as §1

Proteus 4/70 = assay: M.I.C., serial dilution test (Example 4); details: Proteus strain 4/70; V = equal parts I and IV
Description: as §1

Proteus 7/70 = assay: M.I.C., serial dilution test (Example 4); details: Proteus strain 7/70; V = equal parts I and IV
Description: as §1

Proteus 9/70 = assay: M.I.C., serial dilution test (Example 4); details: Proteus strain 9/70; V = equal parts I and IV
Description: as §1

[14] = system: clinically isolated coliform; assay: Emergence of resistance, subculturing by serial twofold broth dilution (Example 7); details: I + II 1:1
Description: The strain used was a clinically isolated coliform. As inocula were used bacteria from the tube with the highest concentration of compound still permitting visible growth to the naked eye after incubation at 37° C. overnight.

E.coli III = assay: Emergence of resistance, subculturing by serial twofold broth dilution (Example 6); details: passage 2; I + IV 1:1
Description: Subculturing using a serial twofold broth dilution technique was performed with 6-(D-α-amino-phenylacetamido)-penicillanic acid (I), 6-[(piperidyl-1)methyleneamino]penicillanic acid (IV) and a 1:1 combination of I+IV. As inocula were used bacteria from the tube with the highest concentration of compound still permitting visible growth to the naked eye after incubation at 37° C. overnight. The following increases in MIC-values were noted.

Coliform 9/70 = assay: M.I.C., serial dilution test in tryptose phosphate broth (Example 1); details: Coliform strain 9/70; overnight at 37° C; III = equal parts I and II
Description: as §1

CC(=O)OCC1=C(C(=O)O)N2C(=O)[C@@H](NC(=O)Cc3cccs3)[C@H]2SC1 [VI, cephalotin]
MIC (Coliforma strain 14): 12.5 µg/mL | MIC (Coliforma strain 3): 6.25 µg/mL | MIC (Coliforma strain 7): 12.5 µg/mL | MIC [1]: 25 µg/mL | M.I.C. [2]: 50 µg/mL | M.I.C. [3]: 3.12 µg/mL

CC1(C)S[C@@H]2[C@H](NC(=O)C(C(=O)O)c3ccccc3)C(=O)N2[C@H]1C(=O)O (stereo partly drawn) [α-carboxybenzylpenicillin]
M.I.C. [4]: 12.5 µg/mL

CC1(C)S[C@@H]2[C@H](NC(=O)[C@H](N=[N+]=[N-])c3ccccc3)C(=O)N2[C@H]1C(=O)O [6-(D-α-azidophenylacetamido)penicillanic acid]
M.I.C. [4]: 50 µg/mL

CC1(C)S[C@@H]2[C@H](NC(=O)Cc3ccccc3)C(=O)N2[C@H]1C(=O)O [benzylpenicillin]
M.I.C. [4]: 25 µg/mL

CCN(C=N[C@@H]1C(=O)N2[C@@H]1SC(C)(C)[C@@H]2C(=O)O)CC [VII, 6-[(N,N-diethylformamidino)-N'-amino]penicillanic acid]
MIC (Coliforma strain 14): 12.5 µg/mL | MIC (Coliforma strain 3): 6.25 µg/mL | MIC [1]: > 100 µg/mL | MIC (Coliforma strain 4): 3.12 µg/mL | MIC [5]: > 100 µg/mL | MIC (Proteus strain 9): 100 µg/mL | MIC [6]: > 100 µg/mL | MIC [7]: > 100 µg/mL

[N-]=[N+]=NCC1=C(C(=O)O)N2C(=O)C(NC(=O)Cc3cccs3)C2SC1 (centres unmarked) [EPC 821/4II]
M.I.C. [2]: 100 µg/mL | M.I.C. [3]: 12.5 µg/mL

CC1(C)S[C@@H]2[C@H](NC(=O)[C@H](N)c3ccccc3)C(=O)N2[C@H]1C(=O)O [I, 6-(D-α-aminophenylacetamido)penicillanic acid]
M.I.C. (Coliform 10/70): 3.12 µg/mL | M.I.C. (Coliform 3/70): 1.56 µg/mL | M.I.C. (Proteus 12/70): 100 µg/mL | M.I.C. (Proteus 13/70): 100 µg/mL | M.I.C. (Proteus 20/70): > 100 µg/mL | M.I.C. (Proteus vulgaris B): 50 µg/mL | M.I.C. (Coliform 14/70): 6.25 µg/mL | M.I.C. (Coliform 16/70): 3.12 µg/mL | M.I.C. (Coliform 7/70): 3.12 µg/mL | M.I.C. [8]: 50 µg/mL | M.I.C. [9]: 50 µg/mL | M.I.C. [10]: 100 µg/mL | M.I.C. [11]: 100 µg/mL | M.I.C. [12]: > 100 µg/mL | M.I.C. [13]: 50 µg/mL | M.I.C. (Proteus 10/70): 1.56 µg/mL | M.I.C. (Proteus 4/70): 1.56 µg/mL | M.I.C. (Proteus 7/70): 1.56 µg/mL | M.I.C. (Proteus 9/70): 6.25 µg/mL | MIC ([14]; passage 1): 3,12 μg/ml | MIC (Coliforma strain 4): 3.12 µg/mL | MIC [5]: > 100 µg/mL | MIC (Proteus strain 9): 3.12 µg/mL | MIC [6]: 50 µg/mL | MIC [7]: 100 µg/mL

CC1(C)S[C@@H]2[C@H](N=CN3CCCCC3)C(=O)N2[C@H]1C(=O)O [IV, 6-[(piperidyl-1)-methyleneamino]penicillanic acid]
M.I.C. (Coliform 14/70): 3.12 µg/mL | M.I.C. (Coliform 16/70): 1.56 µg/mL | M.I.C. (Coliform 7/70): 1.56 µg/mL | MIC (E.coli III): 6.25 µg/mL

CC1(C)S[C@@H]2[C@H](N=CN3CCCCCC3)C(=O)N2[C@H]1C(=O)O [II, 6-[(hexahydro-1H-azepin-1-yl)methyleneamino]penicillanic acid]
M.I.C. (Coliform 3/70): 12.5 µg/mL | M.I.C. (Coliform 9/70): 3.12 µg/mL | MIC ([14]; passage 0): 0.39 µg/mL | MIC ([14]; passage 1): 6.25 µg/mL | MIC ([14]; passage 2): 25 µg/mL | MIC ([14]; passage 3): 25 µg/mL | MIC ([14]; passage 4): 25 µg/mL | MIC ([14]; passage 5): 25 µg/mL | MIC ([14]; passage 7): 25 µg/mL | MIC ([14]; passage 8): 25 µg/mL | M.I.C. [3]: 100 µg/mL

Reference: patent publication US4956179A, “Antibacterial combination of penicillin and cephalosporin” (priority 1971, dated 1990)
